Test results as given in patent US10414797B2, “Gelatinase inhibitors and use thereof” (Iproteos S.L, priority 2015, dated 2019).
Where a SMILES comes first, the peptide text is derived from it. [ ]: non-standard residue; d: D form. The star is where a group is joined. ξ: configuration not given here. Pro(trans-4-F) = O=C(O)[C@@H]1C[C@@H](F)CN1; NMeW = CN[C@@H](Cc1c[nH]c2ccccc12)C(=O)O; Benzoyl(3,5-F2) = O=C(c1cc(F)cc(F)c1)*; NMeIle(3ξ) = CCC(C)[C@H](NC)C(=O)O; NMeF = CN[C@@H](Cc1ccccc1)C(=O)O; NMeQ = CN[C@@H](CCC(N)=O)C(=O)O; NMeL = CN[C@@H](CC(C)C)C(=O)O; NMeA = CN[C@@H](C)C(=O)O; Dab = NCC[C@H](N)C(=O)O; Hexanoyl = CCCCCC(=O)*; Butyryl = CCCC(=O)*; Bz = O=C(c1ccccc1)*; NHOH = ON*

Key:
MMP-1 = MMP-1 (Homo sapiens (Human), UniProt P03956); assay: MMP-1 inhibition assay (fluorogenic peptide substrate); assay type: biochemical; conditions: recombinant MMP-1 5.52 nM, Mca-PLGL-Dpa-AR-NH2 10 μM, 4 hours at room temperature; tested at 1, 10, 100 and 200 μM
Procedure: All the experiments were done in 1× reaction buffer, which was obtained from a 10× reaction buffer solution. The content of the 10× reaction buffer was: 50 mL of 0.5 M Tris-HCl, 1.5 M NaCl, 50 mM CaCl2 and 2 mM sodium azide at pH 7.6. To obtain the 1× reaction buffer 4 mL of the 10× reaction buffer were diluted in 36 mL of H2O.
Recombinant MMP-1 expressed in E. Coli was obtained from Enzo Life Sciences (catalog number BML-SE180). Mca-PLGL-Dpa-AR-NH2 (fluorogenic peptide substrate) was obtained from R&D Systems (catalog number ES001).
Preparation of the MMP-1 for the activity assay: MMP-1 was provided as a stock solution (0.55 mg/mL). The enzyme was diluted in 1× reaction buffer to a final concentration of 276 nM.
MMP-1 peptide substrate was provided as a stock solution in DMSO (6 mM). For the assay, the substrate was diluted 1× reaction buffer to a concentration of 100 μM.
Procedure: The enzymatic assays were performed in 96-well microtiter plate, which allowed simultaneous monitoring of multiple reactions. For each reaction, 86 μL of 1× reaction buffer (pH 7.6), 2 μL of MMP-1 (final concentration 5.52 nM) and 2 μL of the corresponding new compound were added to each well. A stock solution of the new compound was prepared in DMSO (100 mM), and dilutions were prepared from this stock solution with DMSO. Finally, to the mixture contained in each well 10 μL of the substrate were added (final concentration 10 μM). The reaction was incubated for 4 hours at room temperature in an orbital shaker (100 rpm).
The inhibitory activity of the new compound was measured fluorimetrically. The excitation and emission wavelengths were 320 and 405 nm, respectively.
Inhibitory activity at several concentration points (1, 10, 100 and 200 μM) were measured for each compound. The inhibitory activity on MMP-1, MMP-3 and MMP-7 was calculated according to eq 1 and The IC50 value was calculated as explained above for MMP-2 and MMP-9.

[1] = Parallel artificial membrane permeability assay (PAMPA), Blood-Brain Barrier; assay type: in vitro ADME; conditions: initial concentration 200 μM, pH 7.4, 4 hours; for Papp at 4 h, 200 µM: pig, read-out: Effective permeability Pe
Procedure: Parallel Artificial Membrane Permeability Assay (PAMPA)
Parallel artificial membrane permeability assay (PAMPA) described in Kansy et al., J. M. Chem. 1998; 41(7):1007-10 was used here to determine the capacity of compounds to cross the Blood-Brain Barrier (BBB) by passive diffusion (Di L et al., Eur. J. Med. Chem. 2003; 38(3):223-32). The effective permeability (Pe) of the compounds was measured at an initial concentration of 200 μM. The buffer solution was prepared from a commercial concentrated one following the manufacturer's instructions. pH was adjusted to 7.4 using a 0.5 M NaOH solution. A stock solution of new compound was prepared in DMSO and diluted with buffer solution to a final 200 μM concentration (0.5% DMSO content). The PAMPA sandwich was separated and each donor well was filled with […] of the compound solution. The acceptor plate was placed into the donor plate, ensuring that the underside of the membrane was in contact with buffer. 4 μL of the mixture of phospholipids (20 mg/ml) in dodecane was added to the filter of each well, and 200 μL of buffer solution was added to the each acceptor well. The plate was covered and incubated at room temperature in a saturated humidity atmosphere for 4 hours under orbital agitation at 100 rpm. After 4 hours, the contents of the acceptor and donor compartments were analyzed by HPLC: 150 μL of each well from the donor plate and 150 μL of each well from the acceptor plate were transferred to HPLC vials, injecting each sample into a reverse-phase C18 column (150 mm×4.6 mm×5 μm, 100 Å) (100 μL/injection from the acceptor wells, 10 μL/injection from the donor wells and for t0 references). Transport was also confirmed using mass spectrometry (MALDI-TOF).
The phospholipid mixture used was a porcine polar brain lipid extract, provided by Avanti polar lipids, with the following composition: 12.6% phosphatidylcholine (PC), 33.1% phosphatidylethanolamine (PE), 18.5% phosphatidylserine (PS), 4.1% phosphatidylinositol (PI), 0.8% phosphatidic acid and 30.9% of other compounds.
The effective permeability (Pe) after 4 hours was calculated using equation 2 and the percentage of transport (T %) was calculated using equation 3: […]
Ca(t) is the compound concentration in the acceptor well at time t
And Cd(t0) is the compound concentration in the donor well at t0.

Sequence of MMP-1 (P03956 100-269): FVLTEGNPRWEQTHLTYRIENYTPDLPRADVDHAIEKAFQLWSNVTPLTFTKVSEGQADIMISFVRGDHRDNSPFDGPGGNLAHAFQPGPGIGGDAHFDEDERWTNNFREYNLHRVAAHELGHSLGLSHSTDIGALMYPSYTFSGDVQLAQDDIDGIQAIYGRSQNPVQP

| Structure (SMILES) | IC50 (MMP-1) | percentage of transport % T [1] | Papp at 4 h, 200 µM [1] | MMP-1 IC50 (MMP-1) |
| --- | --- | --- | --- | --- |
| CCC(C)[C@@H](C(=O)N[C@@H](CCNC(=O)c1cc(F)cc(F)c1)C(=O)NO)N(C)C(=O)[C@@H]1CCCN1C(=O)CCN(C)C(C)=O (stereo partly drawn) [Example 13, (2S)-1-[3-[acetyl(methyl)amino]propanoyl]-N-[(1S)-1-[[(1S)-3-[(3,5-difluorobenzoyl)amino]-1-(hydroxycarbamoyl)propyl]carbamoyl]-2-methyl-butyl]-N-methyl-pyrrolidine-2-carboxamide] | 200 µM | – | – | – |
| CCCC(=O)N1CCC[C@H]1C(=O)N(C)[C@H](C(=O)N[C@@H](CCNC(=O)c1cc(F)cc(F)c1)C(=O)NO)C(C)CC (stereo partly drawn) [Example 4, (2S)-1-butanoyl-N-[(1S)-1-[[(1S)-3-[(3,5-difluorobenzoyl)amino]-1-(hydroxycarbamoyl)propyl]carbamoyl]-2-methyl-butyl]-N-methyl-pyrrolidine-2-carboxamide] | 4.73 µM | 3.1% | 0.74 ×10⁻⁶ cm/s | – |
| CCCCCC(=O)N1CC(F)(F)C[C@H]1C(=O)N(C)[C@H](C(=O)N[C@@H](CCNC(=O)c1cc(F)cc(F)c1)C(=O)NO)C(C)CC (stereo partly drawn) [Example 7, (2S)—N-[(1S)-1-[[(1S)-3-[(3,5-difluorobenzoyl)amino]-1-(hydroxycarbamoyl)propyl]carbamoyl]-2-methyl-butyl]-4,4-difluoro-1-hexanoyl-N-methyl-pyrrolidine-2-carboxamide] | 24.7 µM | 19.0% | 11.3 ×10⁻⁶ cm/s | – |
| CCCCCC(=O)N1CCC[C@H]1C(=O)N(C)[C@H](C(=O)N[C@@H](CCNC(=O)c1cc(F)cc(F)c1)C(=O)NO)C(C)CC (stereo partly drawn) [Example 3, (2S)—N-[(1S)-1-[[(1S)-3-[(3,5-difluorobenzoyl)amino]-1-(hydroxycarbamoyl)propyl]carbamoyl]-2-methyl-butyl]-1-hexanoyl-N-methyl-pyrrolidine-2-carboxamide] | 6.82 µM | 9.3% | 2.3 ×10⁻⁶ cm/s | – |
| CCC(C)[C@@H](C(=O)N[C@@H](CCNC(=O)c1cc(F)cc(F)c1)C(=O)NO)N(C)C(=O)[C@@H]1CCCN1C(=O)[C@H](C)N(C)C(C)=O (stereo partly drawn) [Example 12, (2 S)-1-[(2S)-2-[acetyl(methyl)amino]propanoyl]-N-[(1S)-1-[[(1S)-3-[(3,5-difluorobenzoyl)amino]-1-(hydroxycarbamoyl)propyl]carbamoyl]-2-methyl-butyl]-N-methyl-pyrrolidine-2-carboxamide] (Ac-[NMeA]P[NMeIle(3ξ)][Dab](Benzoyl(3,5-F2))-{NHOH}) | 14.9 µM | – | – | – |
| CCC(C)[C@@H](C(=O)N[C@@H](CCNC(=O)c1cc(F)cc(F)c1)C(=O)NO)N(C)C(=O)[C@@H]1CCCN1C(=O)CC(C)C (stereo partly drawn) [Example 5, (2S)—N-[(1S)-1-[[(1S)-3-[(3,5-difluorobenzoyl)amino]-1-(hydroxycarbamoyl)propyl]carbamoyl]-2-methyl-butyl]-N-methyl-1-(3-methylbutanoyl)pyrrolidine-2-carboxamide] | 6.68 µM | 7.6% | 1.9 ×10⁻⁶ cm/s | – |
| CCCCCC(=O)N1C[C@H](F)C[C@H]1C(=O)N(C)[C@H](C(=O)N[C@@H](CCNC(=O)c1ccccc1)C(=O)NO)C(C)CC (stereo partly drawn) [Example 16, (2S,4R)—N-[(1S)-1-[[(1S)-3-benzamido-1-(hydroxycarbamoyl)propyl]carbamoyl]-2-methyl-butyl]-4-fluoro-N-methyl-1-hexanoyl-pyrrolidine-2-carboxamide] (Hexanoyl-[Pro(trans-4-F)]-[NMeIle(3ξ)]-[Dab](Bz)-{NHOH}) | – | 7.3% | 3.7 ×10⁻⁶ cm/s | <1 µM |
| CC(=O)N1CCC[C@H]1C(=O)N[C@@H](CCC(N)=O)C(=O)N[C@@H](Cc1c[nH]c2ccccc12)C(=O)NO [Example C17, (2S)-2-[[(2S)-1-acetylpyrrolidine-2-carbonyl)amino]-N-[(1S)-2-(hydroxyamino)-1-(1H-indol-3-ylmethyl)-2-oxo-ethyl]pentanediamide, reference compound] (Ac-Pro-Gln-Trp-{NHOH}) | 6.1 µM | – | – | – |
| CCC(C)[C@@H](C(=O)N[C@@H](CCNC(=O)c1cc(F)cc(F)c1)C(=O)NO)N(C)C(=O)[C@@H]1CCCN1C(=O)CCCOc1ccccc1 (stereo partly drawn) [Example 9, (2S)—N-[(1S)-1-[[(1S)-3-[(3,5-difluorobenzoyl)amino]-1-(hydroxycarbamoyl)propyl]carbamoyl]-2-methyl-butyl]-N-methyl-1-(4-phenoxybutanoyl)pyrrolidine-2-carboxamide] | 11.4 µM | 9.9% | 5.2 ×10⁻⁶ cm/s | – |
| CCC(C)[C@@H](C(=O)N[C@@H](CCNC(=O)c1cc(F)cc(F)c1)C(=O)NO)N(C)C(=O)[C@@H]1CCCN1C(C)=O (stereo partly drawn) [Example 2, (2S)-1-acetyl-N-[(1S)-1-[[(1S)-3-[(3,5-difluorobenzoyl)amino]-1-(hydroxycarbamoyl)propyl]carbamoyl]-2-methyl-butyl]-N-methyl-pyrrolidine-2-carboxamide] | 4.94 µM | 0.8% | 0.2 ×10⁻⁶ cm/s | – |
| CCCC(CCC)C(=O)N1CCC[C@H]1C(=O)N(C)[C@H](C(=O)N[C@@H](CCNC(=O)c1cc(F)cc(F)c1)C(=O)NO)C(C)CC (stereo partly drawn) [Example 8, (2S)—N-[(1S)-1-[[(1S)-3-[(3,5-difluorobenzoyl)amino]-1-(hydroxycarbamoyl)propyl]carbamoyl]-2-methyl-butyl]-N-methyl-1-(2-propylpentanoyl)pyrrolidine-2-carboxamide] | 3.65 µM | 9.0% | 4.7 ×10⁻⁶ cm/s | – |
| CCC(C)[C@@H](C(=O)N[C@@H](CCNC(=O)c1cc(F)cc(F)c1)C(=O)NO)N(C)C(=O)[C@@H]1CCCN1C(=O)[C@H](Cc1ccccc1)N(C)C(C)=O (stereo partly drawn) [Example 11, (2 S)-1-[(2S)-2-[acetyl(methyl)amino]-3-phenyl-propanoyl]-N-[(1S)-1-[[(1S)-3-[(3,5-difluorobenzoyl)amino]-1-(hydroxycarbamoyl)propyl]carbamoyl]-2-methyl-butyl]-N-methyl-pyrrolidine-2-carboxamide] (Ac-[NMeF]P[NMeIle(3ξ)][Dab](Benzoyl(3,5-F2))-{NHOH}) | 9.13 µM | – | – | – |
| CC(=O)N1CCC[C@H]1C(=O)N(C)[C@@H](CCC(N)=O)C(=O)N[C@@H](Cc1c[nH]c2ccccc12)C(=O)NO [Example C20, (2S)-2-[[(2S)-1-acetylpyrrolidine-2-carbonyl]-methyl-amino]-N-[(1S)-2-(hydroxyamino)-1-(1H-indol-3-ylmethyl)-2-oxo-ethyl]pentanediamide, reference compound] (Ac-Pro-[NMeQ]-Trp-{NHOH}) | > 2000 µM | – | – | – |
| CCCC(=O)N(C)[C@@H](Cc1c[nH]c2ccccc12)C(=O)N(C)[C@@H](CC(C)C)C(=O)N1CCC[C@H]1C(=O)N(C)[C@H](C(=O)N[C@@H](CCNC(=O)c1cc(F)cc(F)c1)C(=O)NO)C(C)CC (stereo partly drawn) [Example 14, (2S)-1-[(2S)-2-[[(2S)-2-[butanoyl(methyl)amino]-3-(1H-indol-3-yl)propanoyl]-methyl-amino]-4-methyl-pentanoyl]-N-[(1S)-1-[[(1S)-3-[(3,5-difluorobenzoyl)amino]-1-(hydroxycarbamoyl)propyl]carbamoyl]-2-methyl-butyl]-N-methyl-pyrrolidine-2-carboxamide] (Butyryl-[NMeW][NMeL]P[NMeIle(3ξ)][Dab](Benzoyl(3,5-F2))-{NHOH}) | 6.07 µM | – | – | – |
